Data taken from patent US9173383B2, “Recombinant non-human mammalian model for hepatitis infection and immunopathogenesis” (The University of North Carolina at Chapel Hill, priority 2008, dated 2015).

Legend:
[1] = system: human hepatocyte engraftment; assay: Human hepatocyte engraftment in AP20187-treated AFC8/DKO mice (human albumin ELISA); format: in vivo, mouse
Description: (§1) FIG. 9. […] AFC8/DKO transgenic mice were treated with AP20187 (5 μg/g). A. Plasma ALT levels were measured at 24 hr and 72 hr (and 3-6 days, not shown) post treatment. […] Two non-TG DKO mice were used as controls (dashed line, background). B. Livers were harvested at 24 h after the 2nd injection and H&E stained. […] V, vein. C. […] AFC8/DKO or DKO mice were treated with AP20187 (5 μg/g) one hour prior to intra-splenic injection of human hepatocytes (2×10e6/mouse). Sera were collected at 80 days post transfer and human albumin levels were determined by ELISA. […] AFC8/DKO transgenic mice were treated with AP20187 (5 μg/g). Plasma ALT levels were measured at 24 hr and 72 hr (and 3-6 days, not shown) post treatment (FIG. 9A). […] Two non-TG DKO mice were used as controls (dashed line, background). Livers were harvested at 24 h after the 2nd injection and H&E stained (FIG. 9B). […] V, vein. […] AFC8/DKO or DKO mice were treated with AP20187 (5 μg/g) one hour prior to intra-splenic injection of human hepatocytes (2×10e6/mouse). Sera were collected at 80 days post transfer and human albumin levels were determined by ELISA.

[2] = system: FKBP-Casp8; conditions: 0.25, 1, 4 and 10 mg/kg, peritoneal; cited from earlier work
[3] = system: 293T cells; assay: Hepatocyte-specific apoptosis with Alb-FKBP-Casp8 in 293T cells (7AAD FACS); format: cell-based; conditions: AP20187 2 nM, 24 hours
From the text: (§2) FIG. 5. Generation of Alb-FKBP-Casp8 transgenic DKO (AFC8/DKO) mice. (A) The Alb-FKBP-Casp8 transgene structure and AFC8/DKO-hu HSC/Hep mice: the FKBP2Casp8 fusion gene was cloned into the liver specific transgenic construct with the Albumin promoter (see Heckel et al. 1990. Neonatal bleeding in transgenic mice expressing urokinase-type plasminogen activator. Cell 62:447-56). (B) Hepatocyte-specific apoptosis with expression from the albumin promoter/enhancer. […] As described in FIG. 6B, the FKBP-Casp8 gene controlled by CMV enhancer or the hepatocyte-specific albumin promoter was co-transfected with GFP-expressing plasmid in 293T and HepG2 cells. Transfected cells were cultured for 30 hours and AP20187 dimerizer (2 nM) was added to the culture medium. The cells were then cultured for 24 hours, harvested, stained with 7AAD, and analyzed for GFP and 7AAD. GFP+ cells were analyzed for 7AAD uptake (dead cells). (C) Generation of Alb-FKBP-Casp8/DKO transgenic mice. Standard transgenic mouse procedure was used to inject the transgene construct into fertilized DKO embryos. In the initial screening of 11 mice from two injections, one transgenic founder was identified. […]

[4] = system: murine hepatocytes; assay: Dimer injection in AFC8/DKO transgenic mice: mouse liver damage (plasma ALT, H&E); format: in vivo
Description: as §1

[5] = system: HepG2 cells; assay: Hepatocyte-specific apoptosis with Alb-FKBP-Casp8 in HepG2 cells (7AAD FACS); format: cell-based; conditions: AP20187 2 nM, 24 hours
From the text: as §2

[6] = system: 293T cells transfected with FKBP-Caspase 8; assay: Inducible cell killing in 293T cells co-transfected with eGFP and CMV-promoter driven FKBP-Casp8 (7AAD FACS); format: cell-based
From the text: FIG. 4. Generation of the FKBP-Casp8 fusion gene with inducible cell killing activity. (A) Inducible activation of Caspase 8 through dimerization. The chemical dimerizer AP20187 causes dimerization/activation of Caspase 8 through interaction of adjacent FKBP binding sites. M, myristoylation signal; FKBP, FK506 binding domain; caspase, human activated caspase 8 (fragment Ser217-Aps479. ref) was cloned into the pC4M-Fv2E vector (Ariad Pharmaceuticals) to express the FKBP2-Casp8 fusion protein whose activation is induced by dimerization with AP20187. (B-C) Dose-dependent induction of apoptosis in cells transfected with FKBP-Caspase 8. 293T cells were co-transfected with plasmids expressing eGFP alone, or with CMV-promoter driven FKBP-Casp8. Transfected cells were cultured for 30 hours and then various amounts of AP20187 dimerizer was added. The cells were then cultured for 24 hours, harvested, stained with 7AAD, and analyzed by FACS for GFP and 7AAD. (B) GFP+ (transfected) cells were gated and the percentage of dead cells (7AAD+) was analyzed. (C) GFP− (untransfected bystander) cells were similarly analyzed. At least 3 independent experiments are repeated.
The FKBP-Caspase8 fusion gene with inducible cell killing activity was constructed (FIG. 4; and Chang et al. 2003. Activation of procaspases by FK506 binding protein-mediated oligomerization. Sci STKE 2003:PL1). […] Therefore, FKBP-Casp8 activation by AP20187 kills target cells expressing the gene but not bystander cells, an important point for depleting specific target cells in vivo.

[7] = system: Ova-specific human IgG; assay: Immunization of DKO-hu HSC mice, Ova-specific human IgG induction; format: in vivo; conditions: DKO-hu HSC mouse
From the text: FIG. 8. Antigen-Fc fusion proteins give enhanced antigen-specific IgG induction in vivo.
Human IgG+ B cells were increased by activating human T cells in the spleen in vitro with anti-CD3/CD28 mAb (FIG. 7). […] Ova-specific human IgG induction is enhanced by using the fusion protein between the same chicken ovalbumin protein with the Fc domain of human IgG (FIG. 8).

[8] = system: human T and B cells; assay: Ova vaccination of DKO-hu mice, Ova-specific T and B cell responses; format: in vivo, mouse; conditions: 3 weeks post vaccination
Description: FIG. 1. Long-term, stable human hemato-lymphopoiesis in HSC-DKO Mice. Human fetal liver CD34+ cells were injected intra-hepatically in newborn (1-3 days old) DKO mice. At 12-50 weeks post transplant, the human CD45^+, murine CD45^− cells in PBMC, lymph node (LN), spleen, bone marrow and thymus were analyzed by multi-color FACS. A: Human CD45 reconstitution (12-16 weeks old) in 5 cohorts of DKO-hu HSC mice from 5 independent donor fetal livers. Shown is average % human CD45+ cells in PB of reconstituted DKO-hu HSC mice. Error bars indicate standard errors of each cohort (n=numbers of mice/cohort). B: Human cells reconstitution in PBMC of the transplanted mice. […] Human T cells from a DKO-hu mouse at 50 weeks are analyzed for expression of CD45RO and CD69. […] Human T proliferation is measured by 3-H thymidine incorporation for 16 hr after 3 days post co-culture. […] H: DKO-hu mice are vaccinated with Ova protein and Ova-specific T cell recall response is measured at 3 weeks post vaccination. […] Human T cell proliferation is measured as above.
Human T cells are negatively selected by both mouse MHC/APC and human MHC/APC because both human and mouse antigen presenting cells (APC) are detected in the mouse thymus (see Traggiai et al. 2004. Development of a human adaptive immune system in cord blood cell-transplanted mice. Science 304:104-7). […]

[9] = various amounts of AP20187, 24 hours

Molecule | human albumin levels in sera (ELISA) ([1]; 5 μg/g one hour prior to intra-splenic human hepatocytes, 80 days post transfer) | enhanced human hepatocyte engraftment ([1]; dimer injection in AFC8/DKO mice) | enhanced human hepatocyte engraftment ([1]; one injection of dimerizers) | inducing Caspase8 activation and target cell depletion [2] | toxicity in mice [2] | cell killing (7AAD uptake of GFP+ cells) with Alb-FKBP-Casp8 [3] | liver H&E staining ([4]; 24 h after the 2nd injection, TG livers) | mouse liver damage ([4]; AFC8/DKO mice, 5 μg/g) | plasma ALT levels ([4]; second injection 6 days after 1st injection, 5 μg/g) | cell killing (7AAD uptake of GFP+ cells) with Alb-FKBP-Casp8 [5] | effect on cells transfected with only GFP expressing gene [6] | death of GFP+/FKBP-Casp8+ (transfected) cells, 7AAD+ [6, 9] | death of GFP− (untransfected bystander) cells [6, 9] | Ova-specific human IgG [7] | Ova-specific human T and B cell responses [8]
CC[C@H](C(=O)N1CCCC[C@H]1C(=O)O[C@H](CCc1ccc(OC)c(OC)c1)c1cccc(OCC(=O)NCC(CNC(=O)COc2cccc([C@@H](CCc3ccc(OC)c(OC)c3)OC(=O)[C@@H]3CCCCN3C(=O)[C@@H](CC)c3cc(OC)c(OC)c(OC)c3)c2)CN(C)C)c1)c1cc(OC)c(OC)c(OC)c1 [AP20187] | Enhanced human albumin levels | 50-100 × | 100 × | effective | No toxicity is observed | not 293T cells | Accumulation of fat droplets | transient mouse liver damage | elevated ALT levels | functions in HepG2 | no detectable effect | led to death of GFP+/FKBP-Casp8+ cells | not GFP− bystander cells |  | 
chicken ovalbumin protein: chicken ovalbumin protein used as immunization antigen (protein, UniProt P01012 2-386, looked up) Ovalbumin: GSIGAASMEFCFDVFKELKVHHANENIFYCPIAIMSALAMVYLGAKDSTRTQINKVVRFDKLPGFGDSIEAQCGTSVNVHSSLRDILNQITKPNDVYSFSLASRLYAEERYPILPEYLQCVKELYRGGLEPINFQTAADQARELINSWVESQTNGIIRNVLQPSSVDSQTAMVLVNAIVFKGLWEKAFKDEDTQAMPFRVTEQESKPVQMMYQIGLFRVASMASEKMKILELPFASGTMSMLVLLPDEVSGLEQLESIINFEKLTEWTSSNVMEERKIKVYLPRMKMEEKYNLTSVLMAMGITDVFSSSANLSGISSAESLKISQAVHAAHAEINEAGREVVGSAEAGVDAASVSEEFRADHPFLFCIKHIATNAVLFFGRCVSP |  |  |  |  |  |  |  |  |  |  |  |  |  | very low levels | induces Ova-specific human T and B cell responses
